Data on 34 compounds can be found in ChEMBL document CHEMBL6127080, “Design, synthesis and biological evaluation of novel diphenylamine analogues as NLRP3 inflammasome inhibitors” (Bioorg Med Chem, 2024).

Where only a bound is given, the exact number is not on record here.

Data set [1] deals with NACHT, LRR and PYD domains-containing protein 3 (Mus musculus, UniProt Q8R4B8). Put plainly: Inhibition of NLRP3 inflammasome activation in mouse […] cells assessed as reduction in LPS/ATP-induced IL-1 beta release pretreated with LPS for 4.5 hrs followed by compound addition for 30 mins prior to ATP addition and measured after 30 mins by ELISA. The format is cell-based, J774.A1. (In an ELISA, binding on a coated surface is turned into a signal by an enzyme label.)

In data set [2] the target is NACHT, LRR and PYD domains-containing protein 3 (Mus musculus) (UniProt Q8R4B8). Kind of data set: Inhibition of NLRP3 inflammasome activation in mouse […] cells assessed as reduction in LPS/ATP-induced IL-1 beta release at 10 uM pretreated with LPS for 4.5 hrs followed by compound addition for 30 mins prior to ATP addition and measured after 30 mins by ELISA relative to control. Particulars: J774.A1, time 5.5 hrs. Type of data set: cell-based.

For data set [3] the target is unchanged. Kind of data set: Inhibition of NLRP3 inflammasome activation in mouse […] cells assessed as reduction in LPS/ATP-induced IL-1 beta release at 1 uM pretreated with LPS for 4.5 hrs followed by compound addition for 30 mins prior to ATP addition and measured after 30 mins by ELISA relative to control. Type of data set: cell-based. Particulars: J774.A1, time 5.5 hrs.

The next data set deals with J774.A1. Kind of data set: Cytotoxicity against mouse J774.A1 cells at 50 uM. The format is toxicity, cell-based. Particulars: j774.a1, 5.5 h.
Data set [4] is described as follows: Stability in rat liver homogenate incubated measured upto 48 hrs by HPLC method. Particulars: tissue homogenate. The format is ADME, tissue-based.
Data set [5] is described as follows: Cytotoxicity against mouse J774.A1 cells. The format is toxicity, cell-based.
Data set [6] in a line: Stability in rat plasma incubated measured upto 48 hrs by HPLC method. Type of data set: ADME, cell-free.

Sequence of NACHT, LRR and PYD domains-containing protein 3 (Q8R4B8 whole entry, the tested form may be a part): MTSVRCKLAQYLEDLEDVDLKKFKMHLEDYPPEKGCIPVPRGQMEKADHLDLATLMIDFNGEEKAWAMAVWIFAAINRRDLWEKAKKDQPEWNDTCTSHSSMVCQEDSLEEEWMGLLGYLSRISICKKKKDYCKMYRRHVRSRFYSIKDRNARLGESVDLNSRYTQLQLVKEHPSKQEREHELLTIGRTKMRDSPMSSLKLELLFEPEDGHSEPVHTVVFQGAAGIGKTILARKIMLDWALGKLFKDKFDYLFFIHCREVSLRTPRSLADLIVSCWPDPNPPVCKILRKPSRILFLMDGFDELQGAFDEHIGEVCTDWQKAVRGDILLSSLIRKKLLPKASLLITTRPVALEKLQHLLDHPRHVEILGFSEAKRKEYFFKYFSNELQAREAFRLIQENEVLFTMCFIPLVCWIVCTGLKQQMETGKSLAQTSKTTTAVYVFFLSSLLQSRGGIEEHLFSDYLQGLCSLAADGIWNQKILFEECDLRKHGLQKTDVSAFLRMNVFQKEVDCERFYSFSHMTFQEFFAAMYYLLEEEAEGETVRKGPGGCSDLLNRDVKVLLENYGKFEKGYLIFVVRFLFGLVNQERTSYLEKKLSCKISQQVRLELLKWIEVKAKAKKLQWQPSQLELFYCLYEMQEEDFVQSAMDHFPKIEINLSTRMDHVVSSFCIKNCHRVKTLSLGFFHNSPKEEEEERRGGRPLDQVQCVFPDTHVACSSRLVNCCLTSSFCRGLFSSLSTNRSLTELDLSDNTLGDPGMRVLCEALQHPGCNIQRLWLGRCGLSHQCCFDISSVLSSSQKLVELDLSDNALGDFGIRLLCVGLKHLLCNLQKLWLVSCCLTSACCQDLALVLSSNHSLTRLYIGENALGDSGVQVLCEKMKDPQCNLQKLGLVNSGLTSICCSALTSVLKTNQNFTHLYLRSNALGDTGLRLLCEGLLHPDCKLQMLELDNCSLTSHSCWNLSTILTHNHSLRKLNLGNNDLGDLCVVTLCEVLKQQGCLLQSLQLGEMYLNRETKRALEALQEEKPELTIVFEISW
Sequence of NACHT, LRR and PYD domains-containing protein 3 (Mus musculus) (Q8R4B8 whole entry, the tested form may be a part): as above

By IC50 is commonly meant the point on the concentration scale where inhibition reaches its midpoint. The term inhibition denotes the relative decrease from the control value, in per cent. Take `CCC(=O)Nc1ccc(-c2ccccc2N(Cc2cc(Cl)ccc2OCC(C)(F)F)C(=O)Cc2ccsc2)cc1`: the IC50 in data set [1] came to 550 nM. Further, the inhibition came out at 89.9% in data set [2] and 70.1% in data set [3].
For `COCCOc1ccc(Cl)cc1CN(C(=O)Cc1ccsc1)c1ccccc1-c1ccc(NC(C)=O)cc1`, the inhibition in data set [2] was 33.9%; in data set [3], 1.56%.
For `CCC(=O)Nc1ccc(-c2ccccc2N(Cc2cc(Cl)ccc2OCCOC)C(=O)c2c(F)c(F)c(F)c(F)c2F)cc1`, in that order: 23.6% and 39.7%.
Take `CCC(=O)Nc1ccc(-c2ccccc2N(Cc2ccc(C(F)(F)F)cc2)C(=O)c2ccc(F)cc2)cc1`: the inhibition in data set [2] was determined as 82.1%; in data set [3], 49.7%.
Take `CCC(=O)Nc1ccc(-c2ccccc2N(Cc2cc(F)ccc2OCCOC)C(=O)Cc2ccsc2)cc1`: the inhibition came out at 83.8% in data set [2] and 42.7% in data set [3].
Take `CCC(=O)Nc1ccc(-c2ccccc2N(Cc2cc(Cl)ccc2OCCOC)C(=O)c2cc(F)c(F)c(F)c2)cc1`: the inhibition in data set [2] came out at 77.4%; in data set [3] it was 52.5%.
For `CCS(=O)(=O)Nc1ccc(-c2ccccc2N(Cc2cc(Cl)ccc2OCCOC)C(=O)Cc2ccsc2)cc1`, in that order: 42.5% and 27.5%.
The matching figures for `COCCOc1ccc(Cl)cc1CN(C(=O)Cc1ccsc1)c1ccccc1-c1ccc(NC(=O)C2CCCCC2)cc1`: 39.5% and -2.37%.
As for `COCCOc1ccc(Cl)cc1CN(C(=O)Cc1ccsc1)c1ccccc1-c1ccc(NC(=O)C2CC2)cc1`, the inhibition in data set [2] stood at 63.9%; in data set [3], 27.8%.
For `CCCCS(=O)(=O)Nc1ccc(-c2ccccc2N(Cc2cc(Cl)ccc2OCCOC)C(=O)Cc2ccsc2)cc1`, in that order: 73.7% and 51.5%.
`CCCC(CCC)C(=O)Nc1ccc(-c2ccccc2N(Cc2cc(Cl)ccc2OCCOC)C(=O)Cc2ccsc2)cc1`: the inhibition in data set [2] was 58.1%; in data set [3], 28.6%.
Turning to `CCS(=O)(=O)Nc1ccc(-c2ccccc2N(Cc2cc(Cl)ccc2OCCOC)C(=O)c2ccc(F)cc2)cc1`, the inhibition worked out at 68.2% in data set [2] and 55.4% in data set [3].
As to `CCC(=O)Nc1ccc(-c2ccccc2N(Cc2cc(Cl)ccc2OCCOC)C(=O)Cc2ccc(F)cc2)cc1`, the IC50 in data set [1] was 650 nM. The values for the inhibition in data set [2] and in data set [3] were 93.5% and 76.7%, respectively.
As to `CCCC(=O)Nc1ccc(-c2ccccc2N(Cc2cc(Cl)ccc2OCCOC)C(=O)Cc2ccsc2)cc1`, the half-maximal inhibitory concentration (IC50) in data set [1] worked out at 1030 nM. Moreover, the inhibition was 68.2% in data set [2] and 53.9% in data set [3].
`COCCOc1ccc(Cl)cc1CN(C(=O)Cc1ccsc1)c1ccccc1-c1ccc(NC(=O)C(C)C)cc1`: the figures for the inhibition in data set [2] and in data set [3] were 85.4% and 11.1%, respectively.
In turn, `COCCOc1ccc(Cl)cc1CN(C(=O)Cc1ccsc1)c1ccccc1-c1ccc(NC(=O)CBr)cc1` displayed an Activity in the data set with J774.A1 of more than 97%. Moreover, the IC50 in data set [1] came to 310 nM. In addition, the results for the inhibition in data set [2] and in data set [3] were 90.5% and 73%, respectively.
For the compound `CCC(=O)Nc1ccc(-c2ccccc2N(Cc2cc(F)ccc2OCC(C)(F)F)C(=O)Cc2ccsc2)cc1`, the values for the inhibition in data set [2] and in data set [3] were 74.8% and 27.8%, respectively.
The matching figures for `CCCS(=O)(=O)Nc1ccc(-c2ccccc2N(Cc2cc(Cl)ccc2OCCOC)C(=O)c2ccc(F)cc2)cc1`: 67.6% and 58.9%.
Take `CCC(=O)Nc1ccc(-c2ccccc2N(Cc2cc(Cl)ccc2OCCOC)C(=O)c2ccc(F)cc2)cc1`: the Stability entry in data set [4] and in data set [6] was “Stable” throughout. In addition, the IC50 in data set [5] came to 50 µM; in data set [1], 340 nM.
Consider `C=CC(=O)Nc1ccc(-c2ccccc2N(Cc2cc(Cl)ccc2OCCOC)C(=O)Cc2ccsc2)cc1`, for which the figures for the inhibition in data set [2] and in data set [3] were 72.1% and 24.5%, respectively.
The matching figures for `COCCOc1ccc(Cl)cc1CN(C(=O)Cc1ccsc1)c1ccccc1-c1ccc(NC(=O)Cc2ccccc2)cc1`: 84.3% and 44.5%.
For `CCC(=O)Nc1ccc(-c2ccccc2N(Cc2ccc(F)cc2)C(=O)c2ccc(F)cc2)cc1`, in that order: 39.6% and 40.5%.
Regarding `C#CCCCC(=O)Nc1ccc(-c2ccccc2N(Cc2cc(Cl)ccc2OCCOC)C(=O)Cc2ccsc2)cc1`, the figures for the inhibition in data set [2] and in data set [3] were 49.6% and -0.88%, respectively.
For `CCNC(=S)Nc1ccc(-c2ccccc2N(Cc2cc(Cl)ccc2OCCOC)C(=O)Cc2ccsc2)cc1`, in that order: 78.4% and 29.2%.
Regarding `COCCOc1ccc(Cl)cc1CN(C(=O)Cc1ccsc1)c1ccccc1-c1ccc(NC(=O)OCc2ccccc2)cc1`, the inhibition in data set [2] was determined as 54.4%; in data set [3], 10.6%.
For the compound `CCCCCC(=O)Nc1ccc(-c2ccccc2N(Cc2cc(Cl)ccc2OCCOC)C(=O)Cc2ccsc2)cc1`, the IC50 in data set [1] was found to be 590 nM. Moreover, the inhibition in data set [2] worked out at 81.8%; in data set [3], 67.5%.
On to `CCCS(=O)(=O)Nc1ccc(-c2ccccc2N(Cc2cc(Cl)ccc2OCCOC)C(=O)Cc2ccsc2)cc1`, for which the inhibition in data set [2] was found to be 61.1%; in data set [3], 31.4%.
For the compound `CCC(=O)Nc1ccc(-c2ccccc2N(Cc2cc(Cl)ccc2OCCOC)C(=O)Cc2ccsc2)cc1`, the IC50 in data set [1] was found to be 850 nM. The inhibition in data set [2] stood at 92.5%; in data set [3] it was 72.3%.
For the compound `COCCOc1ccc(Cl)cc1CN(C(=O)Cc1ccsc1)c1ccccc1-c1ccc(NC(=O)/C=C/c2ccccc2)cc1`, the results for the inhibition in data set [2] and in data set [3] were 36.7% and 11.9%, respectively.
The matching figures for `CCC(=O)Nc1ccc(-c2ccccc2N(Cc2cc(Cl)ccc2OCCOC)C(=O)c2ccc(F)c(F)c2)cc1`: 27.7% and 36.1%.
For `CCCCCC(=O)Nc1ccc(-c2ccccc2N(Cc2cc(Cl)ccc2OCCOC)C(=O)c2ccc(F)cc2)cc1`, in that order: 45.4% and 7.12%.
The matching figures for `CCNC(=O)Nc1ccc(-c2ccccc2N(Cc2cc(Cl)ccc2OCCOC)C(=O)Cc2ccsc2)cc1`: 84.4% and 56.9%.
On to `CC(C)(O)c1coc(S(=O)(=O)NC(=O)Nc2c3c(cc4c2CCC4)CCC3)c1`, for which the IC50 in data set [1] was determined as 15 nM.
For `COCCOc1ccc(Cl)cc1CN(C(=O)Cc1ccsc1)c1ccccc1-c1ccc(NC(=O)[C@@H]2CCC(=O)N2)cc1`, the IC50 in data set [1] is 860 nM. In addition, the results for the inhibition in data set [2] and in data set [3] were 84.5% and 54.1%, respectively.
